Reference: patent US6274715A, “Tricyclic erythromycin derivatives” (priority 1997, dated 2001)
Converted amounts (≈) assume the structure as drawn.

Key:
Assay type in all cases: cell-based
[1] = system: STAPHYLOCOCCUS AUREUS ATCC 6538P; experiment: In vitro antibacterial activity, MIC, BHI agar dilution; conditions: S. aureus ATCC 6538P, 35-37° C., 20 to 24 hours, unit assumed
[2] = system: STAPHYLOCOCCUS AUREUS A5177; experiment: as above; conditions: S. aureus A5177, unit assumed
[3] = system: STAPHYLOCOCCUS AUREUS A-5278; experiment: as above; conditions: S. aureus A-5278, unit assumed
[4] = system: STAPHYLOCOCCUS AUREUS CMX 642A; experiment: as above; conditions: S. aureus CMX 642A, unit assumed
[5] = system: STAPHYLOCOCCUS AUREUS NCTC10649M; experiment: as above; conditions: S. aureus NCTC10649M, unit assumed
[6] = system: STAPHYLOCOCCUS AUREUS CMX 553; experiment: as above; conditions: S. aureus CMX 553, unit assumed
[7] = system: STAPHYLOCOCCUS AUREUS 1775; experiment: as above; conditions: S. aureus 1775, unit assumed
[8] = system: STAPHYLOCOCCUS EPIDERMIDIS 3519; conditions: S. epidermidis 3519; BHI agar; unit assumed
EN[…] ATCC 8043 = experiment: In vitro antibacterial activity, MIC, BHI agar dilution; conditions: E. faecium ATCC 8043, unit assumed
Protocol: (§1) Representative compounds of the present invention were assayed in vitro for antibacterial activity as follows: Twelve petri dishes containing successive aqueous dilutions of the test compound mixed with 10 mL of sterilized Brain Heart Infusion (BHI) agar (Difco 0418-01-5) were prepared. Each plate was inoculated with 1:100 (or 1:10 for slow-growing strains, such as Micrococcus and Streptococcus) dilutions of up to 32 different microorganisms, using a Steers replicator block. The inoculated plates were incubated at 35-37° C. for 20 to 24 hours. In addition, a control plate, using BHI agar containing no test compound, was prepared and incubated at the beginning and end of each test.
(§2) An additional plate containing a compound having known susceptibility patterns for the organisms being tested and belonging to the same antibiotic class as the test compound was also prepared and incubated as a further control, as well as to provide test-to-test comparability. Erythromycin A was used for this purpose.
(§3) After incubation, each plate was visually inspected. The minimum inhibitory concentration (MIC) was defmed as the lowest concentration of drug yielding no growth, a slight haze, or sparsely isolated colonies on the inoculum spot as compared to the growth control.

M[…] ATCC 4698 = experiment: as above; conditions: M. luteus ATCC 4698, unit assumed
Protocol: as §1, §2, §3

M[…] ATCC 9341 = experiment: as above; conditions: M. luteus ATCC 9341, unit assumed
Protocol: as §1, §2, §3

STR[…] 508 = experiment: as above; conditions: S. agalactiae CMX 508, unit assumed
Protocol: as §1, §2, §3

[9] = system: STREPTOCOCCUS BOVIS A-5169; experiment: as above; conditions: S. bovis A-5169, unit assumed
[10] = system: STREPTOCOCCUS PYOGENES EES61; experiment: as above; conditions: S. pyogenes EES61, unit assumed
[11] = system: STREPTOCOCCUS PYOGENES 930; experiment: as above; conditions: S. pyogenes 930, unit assumed
ESCHERICHIA COLI JUHL = conditions: E. coli JUHL; BHI agar; unit assumed
ESCHERICHIA COLI SS = experiment: In vitro antibacterial activity, MIC, BHI agar dilution; conditions: E. coli SS, unit assumed
ESCHERICHIA COLI DC-2 = experiment: as above; conditions: E. coli DC-2, unit assumed
ESCHERICHIA COLI H560 = experiment: as above; conditions: E. coli H560, unit assumed
ESCHERICHIA COLI KNK 437 = conditions: E. coli KNK 437; BHI agar; unit assumed
[12] = system: ENTEROBACTER AEROGENES ATCC 13048; experiment: In vitro antibacterial activity, MIC, BHI agar dilution; conditions: E. aerogenes ATCC 13048, unit assumed
[13] = system: KLEBSIELLA PNEUMONIAE ATCC 8045; experiment: as above; conditions: K. pneumoniae ATCC 8045, unit assumed
[14] = system: PROVIDENCIA STUARTII CMX 640; conditions: P. stuartii CMX 640; BHI agar; unit assumed
[15] = system: PSEUDOMONAS AERUGINOSA BMH10; experiment: In vitro antibacterial activity, MIC, BHI agar dilution; conditions: P. aeruginosa BMH10, unit assumed
[16] = system: PSEUDOMONAS AERUGINOSA 5007; experiment: as above; conditions: P. aeruginosa 5007, unit assumed
[17] = system: PSEUDOMONAS AERUGINOSA K799/WT; experiment: as above; conditions: P. aeruginosa K799/WT, unit assumed
[18] = system: PSEUDOMONAS AERUGINOSA K799/61; experiment: as above; conditions: P. aeruginosa K799/61, unit assumed
PSEUDOMONAS CEPACIA 296I = experiment: as above; conditions: P. cepacia 296I, unit assumed
[19] = system: PSEUDOMONAS AERUGINOSA DPHD-5263; experiment: as above; conditions: P. aeruginosa DPHD-5263, unit assumed
[20] = system: PSEUDOMONAS AERUGINOSA DPHD-2862; experiment: as above; conditions: P. aeruginosa DPHD-2862, unit assumed
CANDIDA ALBICANS CCH 442 = experiment: as above; conditions: C. albicans CCH 442, unit assumed
[21] = system: MYCOBACTERIUM SMEGMATIS ATCC 114; experiment: as above; conditions: M. smegmatis ATCC 114, unit assumed
[22] = system: STREPTOCOCCUS PYOGENES PIU 2548; experiment: as above; conditions: S. pyogenes PIU 2548, unit assumed

SMILES | MIC [1] [µg/mL] | MIC [2] [µg/mL] | MIC [3] [µg/mL] | MIC [4] [µg/mL] | MIC [5] [µg/mL] | MIC [6] [µg/mL] | MIC [7] [µg/mL] | MIC [8] [µg/mL] | MIC (EN[…] ATCC 8043) [µg/mL] | MIC (M[…] ATCC 4698) [µg/mL] | MIC (M[…] ATCC 9341) [µg/mL] | MIC (STR[…] 508) [µg/mL] | MIC [9] [µg/mL] | MIC [10] [µg/mL] | MIC [11] [µg/mL] | MIC (ESCHERICHIA COLI JUHL) [µg/mL] | MIC (ESCHERICHIA COLI DC-2) [µg/mL] | MIC (ESCHERICHIA COLI H560) [µg/mL] | MIC (ESCHERICHIA COLI KNK 437) [µg/mL] | MIC [12] [µg/mL] | other results
CC[C@H]1OC(=O)[C@H](C)C(=O)[C@H](C)[C@@H](O[C@@H]2O[C@H](C)C[C@H](N(C)C)[C@H]2O)[C@](C)(OC)C[C@@H](C)C2=N[C@@H](COCc3ccncc3)CN3C(=O)O[C@@]1(C)[C@H]3[C@H]2C [Example 86] | 0.39 (≈ 0.514 µM) | 0.2 (≈ 0.264 µM) | > 100 | 0.39 (≈ 0.514 µM) | 0.39 (≈ 0.514 µM) | 0.39 (≈ 0.514 µM) | > 100 | 0.39 (≈ 0.514 µM) | 0.05 (≈ 0.0659 µM) | 0.39 (≈ 0.514 µM) | 0.05 (≈ 0.0659 µM) | 0.01 (≈ 0.0132 µM) | ≤ 0.005 | < 0.005 | > 100 | > 100 | 100 (≈ 132 µM) | 50 (≈ 65.9 µM) | > 100 | > 100 | MIC (ESCHERICHIA COLI SS): 0.39 µg/mL (≈ 0.514 µM); MIC [13]: > 100 µg/mL; MIC [14]: > 100 µg/mL; MIC [15]: > 100 µg/mL; MIC [16]: > 100 µg/mL; MIC [17]: 100 µg/mL (≈ 132 µM); MIC [18]: 1.56 µg/mL (≈ 2.06 µM); MIC (PSEUDOMONAS CEPACIA 296I): > 100 µg/mL; MIC [19]: > 100 µg/mL; MIC [20]: > 100 µg/mL; MIC (CANDIDA ALBICANS CCH 442): > 100 µg/mL; MIC [21]: 0.78 µg/mL (≈ 1.03 µM)
CC[C@H]1OC(=O)[C@H](C)C(=O)[C@H](C)[C@@H](O[C@@H]2O[C@H](C)C[C@H](N(C)C)[C@H]2O)[C@](C)(OC)C[C@@H](C)C2=NC3CCCCC3N3C(=O)O[C@@]1(C)[C@H]3[C@H]2C (some centres unmarked) [Example 106] | 0.2 (≈ 0.289 µM) | 0.2 (≈ 0.289 µM) | > 100 | 0.39 (≈ 0.564 µM) | 0.2 (≈ 0.289 µM) | 0.2 (≈ 0.289 µM) | > 100 | 0.2 (≈ 0.289 µM) | 0.05 (≈ 0.0723 µM) | 0.39 (≈ 0.564 µM) | 0.05 (≈ 0.0723 µM) | 0.02 (≈ 0.0289 µM) | ≤ 0.005 | ≤ 0.005 | > 100 | 25 (≈ 36.1 µM) | 25 (≈ 36.1 µM) | 12.5 (≈ 18.1 µM) | 25 (≈ 36.1 µM) | 50 (≈ 72.3 µM) | MIC (ESCHERICHIA COLI SS): 0.39 µg/mL (≈ 0.564 µM); MIC [13]: 100 µg/mL (≈ 145 µM); MIC [14]: > 100 µg/mL; MIC [15]: 100 µg/mL (≈ 145 µM); MIC [16]: > 100 µg/mL; MIC [17]: 100 µg/mL (≈ 145 µM); MIC [18]: 0.78 µg/mL (≈ 1.13 µM); MIC (PSEUDOMONAS CEPACIA 296I): 100 µg/mL (≈ 145 µM); MIC [19]: 100 µg/mL (≈ 145 µM); MIC [20]: > 100 µg/mL; MIC (CANDIDA ALBICANS CCH 442): > 100 µg/mL; MIC [21]: 3.1 µg/mL (≈ 4.48 µM)
CC[C@H]1OC(=O)[C@H](C)C(=O)[C@H](C)[C@@H](O[C@@H]2O[C@H](C)C[C@H](N(C)C)[C@H]2O)[C@](C)(OC)C[C@@H](C)C2=NC3CN(C(C)c4ccccc4)CC3N3C(=O)O[C@@]1(C)[C@H]3[C@H]2C (some centres unmarked) [Example 113] | 0.78 (≈ 0.996 µM) | 0.39 (≈ 0.498 µM) | > 100 | 0.78 (≈ 0.996 µM) | 0.78 (≈ 0.996 µM) | 0.78 (≈ 0.996 µM) | > 100 | 1.56 (≈ 1.99 µM) | 0.2 (≈ 0.255 µM) | 0.78 (≈ 0.996 µM) | 0.1 (≈ 0.128 µM) | 0.2 (≈ 0.255 µM) | 0.01 (≈ 0.0128 µM) | 0.05 (≈ 0.0639 µM) | > 100 | > 100 | > 100 | 50 (≈ 63.9 µM) | > 100 | > 100 | MIC [22]: 0.39 µg/mL (≈ 0.498 µM); MIC [13]: > 100 µg/mL; MIC [14]: > 100 µg/mL; MIC [15]: > 100 µg/mL; MIC [16]: > 100 µg/mL; MIC [17]: > 100 µg/mL; MIC [18]: 3.1 µg/mL (≈ 3.96 µM); MIC (PSEUDOMONAS CEPACIA 296I): > 100 µg/mL; MIC [19]: > 100 µg/mL; MIC [20]: > 100 µg/mL; MIC (CANDIDA ALBICANS CCH 442): > 100 µg/mL
